Experimental data published in paper PMC9783868, “Indoline-5-Sulfonamides: A Role of the Core in Inhibition of Cancer-Related Carbonic Anhydrases, Antiproliferative Activity and Circumventing of Multidrug Resistance” (Pharmaceuticals, 2022).

Experiments:
[1] = tested on: A431 skin cancer cells; test: Antiproliferative activity, MTT test; format: cell-based, human; settings: 72 h, hypoxic conditions
From the text: To evaluate the influence of CA inhibition on the antiproliferative activity, we selected five compounds 4b, f, m, n and 10 with different inhibition profiles against CA IX for in-depth testing on cancer cells with increased CA IX expression. The database www.proteinatlas.org (accessed on 13 October 2022) contains data on gene expression in various cell lines. According to the data obtained from this database, A431 cells express CA IX at a very high level, which distinguishes them from human cell lines belonging to other tissues [https://www.proteinatlas.org/ENSG00000107159-CA9/cell+line (accessed on 13 October 2022)]. A431 cells are skin cancer cells, and their growth has already been intensely analyzed in hypoxia. […] Moreover, Ren and colleagues described that hypoxia modulates cellular pathways in A431 cells, which are associated with radioresistance and enhanced migration. Given the observations described above, we were expecting to reveal the high antiproliferative activity of the selected compounds against skin cancer cells. […] In hypoxia, the activity of tested compounds was increased, but the 50% inhibition of growth was never achieved.
The MCF7 human breast, A431 human skin cancer cells and K562 (ATCC CCL-243) chronic myelogenous leukemia cells were obtained from the ATCC collection. The MDR subline K562/4 [77] […] The growth inhibitory activity of compounds was assessed by the MTT test based on the metabolism of the MTT reagent (3-[4,5-dimethylthiazol-2-yl]-2,5-diphenyltetrazolium bromide) (Applichem) in living cells, with modifications as described previously in [49]. […] Culture plates were gently shaken, and the absorbance was measured at 571 nm with a reference wavelength of 630 nm on a MultiScan reader (ThermoFisher, Waltham, MA, USA). The viability of the cells was expressed as a percentage of the control. Dose-response curves were analyzed by regression analysis using sigmoid curves (Log(concentration) vs. normalized absorbance).

[2] = tested on: PD-L1; test: Immunoblotting of hypoxia-induced protein expression in A431 cells; format: cell-based, human; settings: hypoxia 24 h
Method: (§1) We wondered whether compound 4f affected CA IX expression or whether its activity was limited to inhibiting the enzyme activity reported above (Table 1). To induce CA IX expression, cells were placed in hypoxia for 24 h, and then protein expression was analyzed by immunoblotting. Because the data on the expression of hypoxia-related proteins in the literature are highly inconsistent, we introduced additional controls. Antibodies to hypoxia-regulated and “non-hypoxic” proteins were used. The expression of kinase Akt, which is not regulated directly by hypoxia/HIF-1α, was not altered under hypoxia conditions (Figure 5F). […] Thus, lead compound 4f not only blocks the enzyme activity of CA IX, but also causes partial inhibition of hypoxia-induced CA IX expression in skin cancer cells.
(§2) A431 cells were seeded on 100 mm dishes (Corning, Corning, NY, USA), and after 24 h growth, the compound 4f was added to a fresh medium. To prepare cell extracts, A431 cells were twice washed in phosphate buffer and incubated for 10 min on ice in the modified lysis buffer containing 50 mM Tris-HCl, pH 7.5, 0.5% Igepal CA-630, 150 mM NaCl, 1 mM EDTA, 1 mM DTT, 1 mM PMSF, 0.1 mM sodium orthovanadate and aprotinin, leupeptin and pepstatin (1 µg/mL each) as described earlier in the work. The protein content was determined by the Bradford method.
(§3) A431 cell lysates were separated in 10% SDS-PAGE under reducing conditions, transferred to a nitrocellulose membrane (GE HealthCare, Chicago, IL, USA), and processed according to a standard protocol. Akt, GLUT1, PD-L1, and CA IX antibodies were obtained from Cell Signaling Technology (Danvers, MA, USA); the antibodies against GAPDH (Cell Signaling Technology) were added to standardize loading. Goat anti-rabbit IgGs (Jackson ImmunoResearch, West Grove, PA, USA) conjugated to horseradish peroxidase were used as secondary antibodies. Signals were detected using the ECL reagent as described in Mruk and Cheng’s protocol and an ImageQuant LAS4000 system (GE HealthCare).

[3] = tested on: CA IX; test: as above; format: cell-based, human; settings: hypoxia 24 h
Method: as §1, §2, §3

[4] = biological target: T1, hCA II (Homo sapiens, UniProt P00918); test: CA inhibition, stopped-flow CO2 hydration assay; format: biochemical; settings: stopped-flow technique; mean from three assays
T1 construct: made in house
Method: (§4) The CO2 hydration activity of the four hCA isoforms was monitored using an Applied Photophysics stopped-flow instrument. Phenol red (at a concentration of 0.2 mM) was used as an indicator, working at the absorbance maximum of 557 nm, with 10 mM HEPES (pH 7.4) as a buffer, and 20 mM NaClO4 (for maintaining constant the ionic strength), following the initial rates of the CA-catalyzed CO2 hydration reaction for a period of 10–100 s. To determine the kinetic parameters by Lineweaver-Burk plots and the inhibition constants, a concentration of CO2 between 1.7 to 17 mM was used. At least six measurements of the original 5–10% reaction were used to assess the initial velocity for each inhibitor. The uncatalyzed rates were determined and detracted from the total observed rates. Stock inhibitor solutions (10–100 mM) were prepared in distilled-deionized water, and dilutions up to 0.1 nM were done with the buffer test. […] The inhibition constants were obtained by non-linear least-squares methods using PRISM 6 and the Cheng-Prusoff equation, as reported earlier, and represent the mean from at least three different determinations.

[5] = biological target: T2, hCA XII (Homo sapiens, UniProt O43570); test: CA inhibition, stopped-flow CO2 hydration assay; format: biochemical; settings: stopped-flow technique; mean from three assays
T2 construct: made in house
Method: as §4

[6] = biological target: T3, hCA IX (Homo sapiens, UniProt Q16790); test: CA inhibition, stopped-flow CO2 hydration assay; format: biochemical
T3 construct: made in house
Method: as §4

[7] = biological target: T4, hCA I (Homo sapiens, UniProt P00915); test: CA inhibition, stopped-flow CO2 hydration assay; format: biochemical; settings: stopped-flow technique; mean from three assays
T4 construct: made in house
Method: as §4

T2 sequence (O43570 25-354): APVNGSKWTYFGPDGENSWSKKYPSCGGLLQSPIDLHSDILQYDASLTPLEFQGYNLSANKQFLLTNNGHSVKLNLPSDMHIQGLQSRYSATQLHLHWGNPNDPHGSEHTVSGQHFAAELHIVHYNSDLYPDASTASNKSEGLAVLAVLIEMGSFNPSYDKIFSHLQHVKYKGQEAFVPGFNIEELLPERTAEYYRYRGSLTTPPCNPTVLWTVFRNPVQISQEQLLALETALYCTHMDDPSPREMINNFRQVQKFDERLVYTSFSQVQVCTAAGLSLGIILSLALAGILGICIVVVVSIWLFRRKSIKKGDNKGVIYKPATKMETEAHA
T4 sequence (P00915 whole entry): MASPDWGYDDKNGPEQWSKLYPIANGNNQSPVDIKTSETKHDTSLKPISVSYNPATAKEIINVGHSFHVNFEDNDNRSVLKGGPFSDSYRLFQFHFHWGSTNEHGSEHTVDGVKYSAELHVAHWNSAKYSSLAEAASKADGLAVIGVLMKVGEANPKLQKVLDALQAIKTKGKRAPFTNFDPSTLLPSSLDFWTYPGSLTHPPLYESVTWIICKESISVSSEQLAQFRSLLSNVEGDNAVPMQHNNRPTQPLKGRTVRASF

Ki [4]: 31.3 nM
Ki [5]: 112 nM
fold higher activity against CA IX compared with 4e ([6]; in vitro KI, 4f vs 4e): ~10 fold
Ki ([6]; stopped-flow technique, mean from three assays): 141 nM
Ki [7]: 304 nM
Compound: NS(=O)(=O)c1ccc2c(c1)CCN2C(=O)c1cccc(Cl)c1 [Compound 4f, 1-(3-Chlorobenzoyl)indoline-5-sulfonamide]
inhibition of growth of A431 cells, hypoxia [1]: 44%
PD-L1 expression in A431 cells [2]: did not change
CA IX expression in A431 cells [3]: moderate decrease
